Results taken from paper PMC3944524, “Antimicrobial Activity of the Marine Alkaloids, Clathrodin and Oroidin, and Their Synthetic Analogues” (Marine Drugs, 2014).
In brackets after ≈: the same amount, converted by molar mass.

Tests used:
[1] = Mammalian cell cytotoxicity, ATP assay (CellTiter-Glo); format: cell-based, human; details: human, Huh-7 cells, ATP assay, 24 h exposure, average of two dose-response experiments
Protocol: Huh-7 cells (originating from human hepatocellular carcinoma) were kindly provided by Prof. Ralf Bartenschlager (University of Heidelberg, Heidelberg, Germany). […] The cells were incubated at 37 °C in a humidified atmosphere with 5% CO2. The effect of the most promising compounds on the metabolic activity of Huh-7 hepatocytes was assessed by intracellular ATP quantitation (Promega’s CellTiter-Glo Cell Viability Assay, Madison, WI, USA). In brief, cells were seeded at 20,000 cells/well on white-walled 96-well microplates (ViewPlate, PerkinElmer Inc., Wellesley, MA, USA) and incubated at 37 °C, 5% CO2 and 95% humidity overnight and then exposed to the compounds for 24 h. Following the exposure, cells were washed with 100 µL PBS, and 50 µL of fresh assay media and 50 µL of the CellTiter-Glo reagent were added into the wells. After 2 min of shaking and 10 min incubation at rt, luminometric signal was measured using a Varioskan Flash plate reader (Thermo Fisher Scientific, Vantaa, Finland). […] The IC50 values were calculated by fitting the data into sigmoidal dose-response curves with the Origin software.

[2] = test system: Enterococcus faecalis (ATCC 29212); experiment: Broth microdilution antimicrobial assay, Enterococcus faecalis; format: cell-based; details: for SI (selectivity index): E. faecalis MIC50 vs Huh-7 cytotoxicity IC50; for MIC90 / MIC50: Enterococcus faecalis; for MIC90: ATCC29212, 24 h; for MIC50: ATCC29212, E. faecalis ATCC 29212, 24 h, sigmoidal curve fitting
Protocol: (§1) Clinical control strains of Enterococcus faecalis (Gram-positive, ATCC 29212), Staphylococcus aureus (Gram-positive, ATCC 25923), Escherichia coli (Gram-negative, ATCC 25922) and a fungal strain, Candida albicans (ATCC 90028), were obtained from Microbiologics Inc. (St. Cloud, MN, USA) and used for the antimicrobial screening. Bacterial strains were grown on Mueller Hinton II agar (MHA, Becton Dickinson, Franklin Lakes, NJ, USA) […] Mueller Hinton II broth (MHB, Becton Dickinson, Franklin Lakes, NJ, USA) and the Candida strain on Sabouraud dextrose agar (SDA, Becton Dickinson, Franklin Lakes, NJ, USA) plates. Media were prepared in MilliQ water, according to the manufacturer's instructions, and autoclaved at 121 °C for 15 min. […] The Candida strain was grown on SDA plates at 28 °C for 18-24 h and suspended into sterile 0.9% saline for the assay. Antimicrobial assays were performed by the broth microdilution method following the guidelines of the Clinical and Laboratory Standards Institute (CLSI) and European Committee on Antimicrobial Susceptibility Testing (EUCAST). […] The Candida suspension was prepared in sterile 0.9% saline solution, and the suspension was diluted in RPMI-1640 media (with L-glutamine, without NaHCO3 and supplemented with 2% glucose and 0.165 M MOPS, buffered to pH 7; Lonza, Basel, Switzerland) to yield a final inoculum of 2.5 × 10^3 CFU/mL in the assay. Assays were carried out in clear 96-well microtiter plates and initiated by dispensing an equal volume of microbial suspension and sample solution diluted into the assay medium. The plates were incubated for 24 h at 37 °C (for Candida, the incubation was at 28 °C for 48 h) with agitation. […] The antimicrobial activity of the samples was calculated from the absorbance values by comparing to untreated controls and expressed as the percentage inhibition of growth. Reference antibiotics were used as positive controls on every assay plate (see Figure 2 for details). […] MIC50 values were determined from the dose-response results by sigmoidal curve fitting with Origin software (OriginLab, Corp., Wellesley Hills, MA, USA).

[3] = test system: Staphylococcus aureus (ATCC 25923); experiment: Broth microdilution antimicrobial assay, Staphylococcus aureus; format: cell-based; details: for SI (selectivity index): S. aureus MIC50 vs Huh-7 cytotoxicity IC50; for MIC90 / MIC50: Staphylococcus aureus; for MIC90: ATCC25923, 24 h; for MIC50: ATCC25923, S. aureus ATCC 25923, 24 h, sigmoidal curve fitting
Protocol: as §1

[4] = test system: Candida albicans (ATCC 90028); experiment: Broth microdilution antifungal assay, Candida albicans; format: cell-based; details: Candida albicans
Protocol: Clinical control strains of Enterococcus faecalis (Gram-positive, ATCC 29212), Staphylococcus aureus (Gram-positive, ATCC 25923), Escherichia coli (Gram-negative, ATCC 25922) and a fungal strain, Candida albicans (ATCC 90028), were obtained from Microbiologics Inc. (St. Cloud, MN, USA) and used for the antimicrobial screening. Bacterial strains were grown on Mueller Hinton II agar (MHA, Becton Dickinson, Franklin Lakes, NJ, USA) slants and Mueller Hinton II broth (MHB, Becton Dickinson, Franklin Lakes, NJ, USA) and the Candida strain on Sabouraud dextrose agar (SDA, Becton Dickinson, Franklin Lakes, NJ, USA) plates. Media were prepared in MilliQ water, according to the manufacturer’s instructions, and autoclaved at 121 °C for 15 min. Prior to the assay, bacterial suspensions were prepared in MHB from fresh slant cultures and incubated at 37 °C for 16–20 h at 100 rpm. The Candida strain was grown on SDA plates at 28 °C for 18–24 h and suspended into sterile 0.9% saline for the assay.
Antimicrobial assays were performed by the broth microdilution method following the guidelines of the Clinical and Laboratory Standards Institute (CLSI) and European Committee on Antimicrobial Susceptibility Testing (EUCAST). Bacterial suspensions were prepared as described above and diluted with MHB to obtain a final inoculum of 5 × 10^5 colony-forming units (CFU)/milliliters in the assay (determined on the basis of absorbance values at 620 nm previously calibrated against plate counts). The Candida suspension was prepared in sterile 0.9% saline solution, and the suspension was diluted in RPMI-1640 media (with L-glutamine, without NaHCO3 and supplemented with 2% glucose and 0.165 M MOPS, buffered to pH 7; Lonza, Basel, Switzerland) to yield a final inoculum of 2.5 × 10^3 CFU/mL in the assay. Assays were carried out in clear 96-well microtiter plates and initiated by dispensing an equal volume of microbial suspension and sample solution diluted into the assay medium. The plates were incubated for 24 h at 37 °C (for Candida, the incubation was at 28 °C for 48 h) with agitation. Absorbance was measured at 620 nm with a plate reader at 0, 4 and 24 h with the bacteria and at 0, 24 and 48 h with Candida. The antimicrobial activity of the samples was calculated from the absorbance values by comparing to untreated controls and expressed as the percentage inhibition of growth. Reference antibiotics were used as positive controls on every assay plate (see Figure 2 for details). […] MIC50 values were determined from the dose-response results by sigmoidal curve fitting with Origin software (OriginLab, Corp., Wellesley Hills, MA, USA).

SMILES | melting point [°C] | IC50 at 24 h [1] [µM] | SI (selectivity index) [3] | MIC90 [3] [µM] | MIC50 [3] [µM] | other results
COc1ccc2[nH]c(C(=O)Nc3cccc(-c4cn(C(=O)OC(C)(C)C)c(N)n4)c3)cc2c1 [Compound 5f, tert-Butyl 2-amino-4-(3-(5-methoxy-1H-indole-2-carboxamido)phenyl)-1H-imidazole-1-carboxylate] | 173 to 177 | – | – | – | – | –
CC(C)(C)OC(=O)n1cc(-c2cccc(NC(=O)c3cc4cc(OC(F)(F)F)ccc4[nH]3)c2)nc1N [Compound 5g, tert-Butyl 2-amino-4-(3-(5-(trifluoromethoxy)-1H-indole-2-carboxamido)phenyl)-1H-imidazole-1-carboxylate] | 185 to 187 | – | – | – | – | –
CC(C)(C)OC(=O)n1cc(-c2cccc(NC(=O)c3cc4cc(OCc5ccccc5)ccc4[nH]3)c2)nc1N [Compound 5h, tert-Butyl 2-amino-4-(3-(5-(benzyloxy)-1H-indole-2-carboxamido)phenyl)-1H-imidazole-1-carboxylate] | 140 to 143 | – | – | – | – | –
CC(C)(C)OC(=O)n1cc(-c2cccc(NC(=O)c3cc4cc(F)ccc4[nH]3)c2)nc1N [Compound 5j, tert-Butyl 2-amino-4-(3-(5-fluoro-1H-indole-2-carboxamido)phenyl)-1H-imidazole-1-carboxylate] | 189 to 192 | – | – | – | – | –
CC(C)(C)OC(=O)n1cc(-c2cccc(NC(=O)c3cc4sccc4[nH]3)c2)nc1N [Compound 5k, tert-Butyl 4-(3-(4H-thieno[3,2-b]pyrrole-5-carboxamido)phenyl)-2-amino-1H-imidazole-1-carboxylate] | 178 to 180 | – | – | – | – | –
Nc1nc(-c2cccc(NC(=O)c3cc4ccccc4[nH]3)c2)c[nH]1 [Compound 6d] | – | 42.3 | 1.4 | 50 (≈ 15.9 µg/mL) | 29.4 (≈ 9.33 µg/mL) | SI (selectivity index) [2]: 1.2; MIC90 [2]: 50 µM (≈ 15.9 µg/mL); MIC50 [2]: 34 µM (≈ 10.8 µg/mL)
COc1ccc2[nH]c(C(=O)Nc3cccc(-c4c[nH]c(N)n4)c3)cc2c1.Cl [Compound 6f, 2-Amino-4-(3-(5-methoxy-1H-indole-2-carboxamido)phenyl)-1H-imidazol-3-ium chloride] | 237 to 241 | 32.2 | 2.7 | 50 | 11.9 | –
Cl.Nc1nc(-c2cccc(NC(=O)c3cc4cc(OC(F)(F)F)ccc4[nH]3)c2)c[nH]1 [Compound 6g, 2-Amino-4-(3-(5-(trifluoromethoxy)-1H-indole-2-carboxamido)phenyl)-1H-imidazol-3-ium chloride] | 255 to 260 | – | – | – | – | –
Cl.Nc1nc(-c2cccc(NC(=O)c3cc4cc(Cl)ccc4[nH]3)c2)c[nH]1 [Compound 6i, 2-Amino-4-(3-(5-chloro-1H-indole-2-carboxamido)phenyl)-1H-imidazol-3-ium chloride] | 201 to 204 | 21.7 | 3.0 | 50 | 7.2 | –
Cl.Nc1nc(-c2cccc(NC(=O)c3cc4cc(F)ccc4[nH]3)c2)c[nH]1 [Compound 6j, 2-Amino-4-(3-(5-fluoro-1H-indole-2-carboxamido)phenyl)-1H-imidazol-3-ium chloride] | 202 to 205 | 19.8 | 0.9 | 50 | 22.1 | SI (selectivity index) [2]: 0.7; MIC90 [2]: 100 µM; MIC50 [2]: 27.3 µM
Cl.Nc1nc(-c2cccc(NC(=O)c3cc4sccc4[nH]3)c2)c[nH]1 [Compound 6k, 4-(3-(4H-Thieno[3,2-b]pyrrole-5-carboxamido)phenyl)-2-amino-1H-imidazol-3-ium chloride] | 198 to 202 | 53.6 | 2.0 | 100 | 27.1 | –
CNc1nc(-c2cccc(NC(=O)c3cc4ccccc4[nH]3)c2)c[nH]1 [Compound 6l] | – | 52.3 | 4.9 | 75 (≈ 24.9 µg/mL) | 10.8 (≈ 3.58 µg/mL) | SI (selectivity index) [2]: 1.0; MIC90 [2]: 100 µM (≈ 33.1 µg/mL); MIC50 [2]: 54.2 µM (≈ 18 µg/mL)
CC(C)(C)OC(=O)n1cc(-c2cccc(NC(=O)c3cc4cc(O)ccc4[nH]3)c2)nc1N [Compound 7, tert-Butyl 2-Amino-4-(3-(5-hydroxy-1H-indole-2-carboxamido)phenyl)-1H-imidazole-1-carboxylate] | 192 to 196 | 94 | – | 100 (≈ 43.3 µg/mL) | 11.6 (≈ 5.03 µg/mL) | –
Cl.Nc1nc(-c2cccc(NC(=O)c3cc4cc(O)ccc4[nH]3)c2)c[nH]1 [Compound 8, 2-Amino-4-(3-(5-hydroxy-1H-indole-2-carboxamido)phenyl)-1H-imidazol-3-ium chloride] | 248 to 252 | > 100 | >2.5 | 100 | 40.5 | –
Nc1nc(-c2cccc(NC(=O)c3ccc[nH]3)c2)cn1Cc1ccccc1 [Compound 15, N-(3-(2-Amino-1-benzyl-1H-imidazol-4-yl)phenyl)-1H-pyrrole-2-carboxamide] | 229 to 232 | – | – | – | – | –
Nc1nc(-c2cccc(NCc3ccc[nH]3)c2)cn1Cc1ccccc1 [Compound 16, 4-(3-(((1H-Pyrrol-2-yl)methyl)amino)phenyl)-1-benzyl-1H-imidazol-2-amine] | 165 to 168 | – | – | – | – | –
C[C@@H]1[C@H](O)[C@@H](C)/C=C/C=C/C=C/C=C/C=C/C=C/C=C/[C@H](O[C@@H]2O[C@H](C)[C@@H](O)[C@H](N)[C@@H]2O)C[C@@H]2O[C@](O)(C[C@@H](O)C[C@@H](O)[C@H](O)CC[C@@H](O)C[C@@H](O)CC(=O)O[C@H]1C)C[C@H](O)[C@H]2C(=O)O [amphotericin B, reference compound] | – | – | – | – | – | MIC90 ([4]; ATCC90028, 48 h): 0.5 µM; MIC90 ([4]; ATCC90028, C. albicans ATCC 90028, 48 h): 0.5 µg/mL
